{
  "source": "patent US9820994B2",
  "about": "“Cerclage pessary containing progesterone of prolonged, sustained, and continuous release useful for prevention of preterm birth” (Laboratorios Andromaco S.A., priority 2014, dated 2017)",
  "origin": "cited, not measured here",
  "system": "women at risk of preterm birth (short cervix / history of preterm birth)",
  "data": [
    {"smiles": "CC(=O)[C@H]1CC[C@H]2[C@@H]3CCC4=CC(=O)CC[C@]4(C)[C@H]3CC[C@]12C", "note": "[progesterone]", "values": [
      {"measurement": "Reduction in rate of spontaneous preterm birth before 33-34 weeks", "setting": "250 mg IM weekly, 200 mg daily vaginal suppositories, 90 mg vaginal gel", "value": "approximately 40%"},
      {"measurement": "Rate of births before 34 weeks", "setting": "vaginal progesterone group, singleton, previous preterm birth, cervical length less than 25 mm (Alfirevic et al., 2013)", "value": "~30", "unit": "%"},
      {"measurement": "Reduction of the rate of spontaneous preterm birth before 33-34 weeks", "setting": "vaginally administered, patients with short cervix", "value": "40-45%"}
    ]}
  ]
}
